Data taken from US11260050B2, “Combination of cotinine plus antioxidant for treatment-resistant depression and correction of astrocytes functional deficit induced by depression and other neuropathological” (UNIVERSIDAD SAN SEBASTIAN, priority 2017, dated 2022).

Key:
[1] = tested on: mice subjected to restraint stress; experiment: Novel object recognition after restraint stress (Example 1, Experiment 1); format: in vivo, C57BL/6 mice; conditions: RS mice, 14 days of IN cotinine; p<0.05
Method: Mice were treated immediately after the 21 days of immobilization stress (6 h/day) until euthanasia. Mice (n=5-8/condition) received daily treatments with 1. PBS (phosphate buffer saline, pH 7.4) via intranasal (2×12 μl/nostril), 2. PBS via gavage (50 μl); 3. Cotinine dissolved in PBS via oral (gavage, (0.5 mg/kg; Cot 0.5); 4. Cotinine dissolved in PBS via intranasal (Cot IN, 10 mg/ml, 2×12 μl/nostril).
To induce chronic stress, the restraint stress paradigm was used as previously described. Mice are immobilized in 50 ml falcon plastic tubes that were attached to mouse cages. The immobilization proceeded during 6 h from 9:00 AM to 3:00 PM in absence of treatments. Tubes have holes in the opposite side of the tube to allow the animal breathing and urination. Mice were almost completely immobilized for 6 h/day for 21 days after which they were permitted freely to move, eat and drink.
After a habituation step in the OF arena, each mouse was individually placed in the apparatus containing two identical objects located equidistant to each other (familiarization phase) and left to explore the objects for 5 min. Then, mice were returned to their cages and permitted to rest for 30 min. […] The time exploring the two objects was recorded during 5 min. […]

restrained mice = experiment: Open field test, oral co-treatment during restraint stress (Example 3); format: in vivo, C57BL/6J mice; conditions: oral cotinine 5 mg/kg, KO 143 mg/kg or both, 25 min
Method: Mice after acclimatization and one week of handling were randomly divided into five groups (n=8/condition) and orally treated as follow: 1) control non-restrained mice treated with vehicle (PBS, pH 7.4); 2) restrained mice treated with vehicle; 3), restrained mice treated with a cotinine solution (5 mg/kg in PBS, pH 7.4) via gavage; 4) restrained mice treated with KO (143 mg/kg); 5) restrained mice treated with cotinine plus KO solution. Mice were started with treatments, the first day of restraint and continuously until euthanasia. Treatments were administered at the same time of the day, 30 min before restraint. After 21 days into treatments, mice were behaviorally tested (FIG. 17).
Restraint stress (RS) was used as a model of chronic stress-induced depressive-like behavior and cognitive impairment. We used this task because is a reliable method that mimics the effects of chronic stress without causing physical pain or unnecessary discomfort to the mice. Mice were gently introduced into a 50-ml conical transparent plastic tubes (Corning Inc.). […]
The open field (OF) test was conducted as previously described with minor modifications to identify changes in locomotor activity in response to stress and/or drug treatments. […] Total distance traveled, and time spent in the center zone were measured under moderate lighting using the video tracking software (ANY-Maze, Stoelting Co.).

restrained C57BL/6 mice = conditions: oral cotinine administered before and continuously to restrained C57BL/6 mice; cited from earlier work
conditioned mice = experiment: Forced swim test after fear conditioning and extinction (Example 4); format: in vivo, Mice C57BL/6; conditions: FC mice after extinction; Tukey: cotinine p<0.001, combination p<0.005, sertraline p<0.05
Method: Three-month-old mice (n=5-6/condition) were weighed and assigned to treatment groups. Mice were treated with vehicle or drugs, starting two h after fear conditioning and daily after behavioral testing until euthanasia. Mice received daily treatments with 1. PBS (phosphate buffer saline, pH 7.4) via intranasal; 2. Cotinine (10 mg/ml) dissolved in PBS via intranasal (IN Cot, 24 μl); 3. Krill oil dissolved in PBS, via intranasal (48 mg/ml, 24 μl); 4. Cotinine (10 mg/ml) plus krill oil dissolved in PBS, via intranasal (48 mg/ml, 24 μl); 5.
For intranasal delivery, mice were hand-restrained, placed in a supine position, and given two 12 μl drops of cotinine solutions, or PBS, into both nares consecutively. Mice were given an extra 12 μl treatment drop if the subject forcibly ejected or sneezed out the solution. Mice were held supine for 5-10 seconds after delivery to ensure that all fluid was inhaled.

mice = conditions: absence of stress, cotinine treatment for up to eight months; cited from earlier work

For `CN1C(=O)CC[C@H]1c1cccnc1` [Cotinine, (5S)-1-methyl-5-(3-pyridyl) pyrrolidin-2-one], the “number of entries into the new object area (NOR)” value [1] is listed as “increased the number of entries into the new object area to control values”, the “locomotor activity in the open field (distance traveled, speed)” value (restrained mice) is listed as “no significant changes in locomotor activity” and the “depressive-like behavior induced by stress” value (restrained C57BL/6 mice) is listed as “substantively decreased depressive-like behavior induced by stress”. The “depressive-like behavior (immobility) in the forced swim test” value (conditioned mice) was “significantly decreased depressive-like behavior” and the “sensory motor abilities or anxiety” value (mice) was “did not induce significant differences in sensory motor abilities or anxiety”.
